This passage reports absorption maximum results from the Deep4Chem optical property database.

Each structure is given as a SMILES string.

The data set can be described thus: solvent given as SMILES.

For the molecule `CN1C(=CC2=C([O-])C(=CC3=[N+](C)c4ccc(Cl)cc4C3(C)C)C2=O)C(C)(C)c2cc(Cl)ccc21`, the absorption maximum runs as follows: (in CO) 635 nm; (in ClC(Cl)Cl) 641 nm; (in ClCCl) 641 nm.
For `N#Cc1cc(N2c3ccccc3Sc3ccccc32)c(N2c3ccccc3Sc3ccccc32)cc1C#N`, the absorption maximum (in c1ccc2c(c1)c1ccccc1n2-c1ccc(-c2ccc(-n3c4ccccc4c4ccccc43)cc2)cc1) worked out at 551 nm.
Take `CCC1(CC)c2ccccc2-c2ccc(C#Cc3ccc4ccc5cccc6ccc3c4c56)cc21`: the absorption maximum is given as 401 nm (in C1CCCCC1); 402 nm (in C1CCOC1); 399 nm (in CC#N); 400 nm (in CCOC(C)=O); 404 nm (in CN(C)C=O); 405 nm (in Cc1ccccc1). Moreover, the absorption maximum was found to be 404 nm (in ClC(Cl)Cl) and 403 nm (in ClCCl).
For `CN1C(=CC2=C([S-])C(=CC3=[N+](C)c4ccccc4C3(C)C)C2=O)C(C)(C)c2ccccc21`, the absorption maximum (in ClC(Cl)Cl) turned out to be 650 nm.
Where the note is “in Cc1ccccc1”, `c1cc2cc(c1)c1cccc(c1)c1ccc3ccc4ccc(cc4c3c1)c1cccc(c1)c1cccc2c1` yielded an absorption maximum of 343 nm.
As to `OCc1ccc2c3cccc4cccc(c5cccc1c52)c43`, the absorption maximum (in CCO) turned out to be 439 nm.
For the molecule `Cc1ccc2nc3c(nc2c1)c(-c1ccccc1)nn3C`, the absorption maximum reads like this: (in C1CCCCC1) 424 nm; (in C1CCOC1) 425 nm; (in CC#N) 423 nm.
On to `Cc1ccc(-c2nc(-c3cccc(O)c3)[nH]c2-c2ccc(C)cc2)cc1`, for which, under “in CO”, the absorption maximum turned out to be 300 nm.
`CN(C)c1ccc(C(=O)c2ccccc2)cc1`: the absorption maximum is 325 nm (in C1CCCCC1); 345 nm (in CC#N); 355 nm (in CO); 350 nm (in CS(C)=O); 340 nm (in c1ccccc1).
Where the note is “in C1CCCCC1”, `CC(C)c1cc(C(C)C)c(B2c3cc(N4c5ccccc5Oc5ccccc54)ccc3N(c3ccccc3)c3ccc(N4c5ccccc5Oc5ccccc54)cc32)c(C(C)C)c1` registered an absorption maximum of 372.79 nm.
On to `CCN(CC)c1ccc(OC)c(C=O)c1`, for which the absorption maximum turned out to be 412 nm (in CC#N); 418 nm (in CC(C)O); 400 nm (in CCCCCC); 406 nm (in CCOC(C)=O); 420 nm (in CO); 424 nm (in CS(C)=O). The absorption maximum is, setting by setting: (in Cc1ccccc1) 411 nm; (in ClCCl) 415 nm.
For the setting “in C1CCCCC1”, `Nc1cccc2cc3ccccc3cc12` yielded an absorption maximum of 384.17 nm.
`C[n+]1c2c(c(-c3ccccc3)c3c1CCCC3)CCCC2` displayed an absorption maximum (in CCO) of 340.03 nm.
For `CCCCCCCCc1ccc(-c2c3cc(-c4cc(CCCCCCCC)c(-c5ccc(-c6sc(/C=C7\SC(SCC)=NC7=O)cc6CCCCCCCC)s5)s4)sc3c(-c3ccc(CCCCCCCC)s3)c3cc(-c4cc(CCCCCCCC)c(-c5ccc(-c6sc(/C=C7\SC(SCC)=NC7=O)cc6CCCCCCCC)s5)s4)sc23)s1`, the absorption maximum (in ClC(Cl)Cl) is listed as 500 nm.
In the case of `O=C(/C=C/c1cn(-c2ccccc2)nc1-c1ccccc1)c1c(O)c2ccccc2oc1=O`, the absorption maximum came to 406 nm (in C1CCOC1); 405 nm (in C1COCCO1); 400 nm (in CCO); 402 nm (in CCOC(C)=O); 381 nm (in CN(C)C=O); 352 nm (in CO). In addition, the absorption maximum runs as follows: (in CS(C)=O) 401 nm; (in Cc1ccccc1) 409 nm; (in ClC(Cl)Cl) 405 nm; (in ClCCl) 404 nm.
The molecule `Cc1cc(-n2c3ccccc3c3cc(C#N)ccc32)ccc1-c1ccc(S(=O)(=O)c2ccccc2)cc1C` had an absorption maximum (in Cc1ccccc1) of 341 nm.
The molecule `CC(NC(=O)OC(C)(C)C)C(=O)OCc1ccc2c3cccc4cccc(c5cccc1c52)c43` (stereo unspecified) showed an absorption maximum (in CCO) of 437 nm.
`COc1ccc2ncccc2c1`: the absorption maximum is, setting by setting: (in CC#N) 329 nm; (in CCCC#N) 329 nm; (in Cc1ccccc1) 331 nm.
As to `Cc1cc(C)c(B(c2c(C)cc(C)cc2C)c2c(C)cc(-n3c4ccc(N(c5ccccc5)c5ccccc5)cc4c4cc(N(c5ccccc5)c5ccccc5)ccc43)cc2C)c(C)c1`, the absorption maximum (in Cc1ccccc1) is on record as 387 nm.
On to `CC(=O)[O-]`, for which, under “in O”, the absorption maximum amounted to 210 nm.
For the setting “in CCO”, `O=C(c1cc(F)c(N2CCCCC2)cc1F)c1cc(F)c(N2CCCCC2)cc1F` had an absorption maximum of 354 nm.
Consider `CC(C)(C)c1ccc2c(c1)c1cc(C(C)(C)C)ccc1n2-c1ccc(-c2cccs2)s1`, for which the absorption maximum (in ClCCl) turned out to be 340 nm.
Molecule `Oc1ccc(C2=[N+]3C(=C(c4ccccc4)c4cccn4[B-]3(F)F)C=C2)cc1` yielded an absorption maximum (in ClC(Cl)Cl) of 541 nm.
As to `O=C1O[B-]2(OC1=O)OC(c1ccc3ccccc3c1)=CC(c1ccc3ccccc3c1)=[O+]2`, the absorption maximum is, setting by setting: (in CC#N) 435 nm; (in ClC(Cl)(Cl)Cl) 438 nm.
For the molecule `Cc1cccc(C2=Cc3c4ccccc4c4ccccc4[n+]3[B-](F)(F)O2)c1`, the absorption maximum (in ClC(Cl)Cl) worked out at 434 nm.
`Cc1ccc(/C=C/c2nc(-c3ccc([N+](=O)[O-])cc3)[nH]c2/C=C/c2ccc(C)cc2)cc1` had an absorption maximum (in ClCCl) of 445 nm.
As for `CCN1CCCc2cc3c(cc21)Oc1cc2c(cc1=N3)C(CS(=O)(=O)[O-])CC(C)(C)[N+]=2CCCC(=O)[O-]` (stereo unspecified), the absorption maximum (in O) is reported as 655 nm.
Regarding `CCn1c2ccccc2c2cc(-c3cc(-c4ccc5c(c4)c4ccccc4n5CC)nc(-c4ccc(C#N)cc4)n3)ccc21`, the absorption maximum by setting is: (in C1CCOC1) 367 nm; (in CCOC(C)=O) 363 nm; (in CN(C)C=O) 370 nm; (in Cc1ccccc1) 366 nm; (in ClCCl) 365 nm.
Take `CCn1c2ccccc2c2cc(-c3cc(-c4ccc5c(c4)c4ccccc4n5CC)nc(OC)n3)ccc21`: the absorption maximum (in C1CCOC1) is 366 nm; the absorption maximum (in CCOC(C)=O) stood at 364 nm; the absorption maximum (in CN(C)C=O) is 369 nm; the absorption maximum (in Cc1ccccc1) was 365 nm; the absorption maximum (in ClCCl) was found to be 366 nm.
For the molecule `COc1cc2c(cc1-c1ccc(N(c3ccccc3)c3ccccc3)cc1)Cc1c3c(c4c(c1-2)-c1cc(OC)c(-c2ccc(N(c5ccccc5)c5ccccc5)cc2)cc1C4)C(=O)N(CCC(C)C)C3=O`, the absorption maximum (in C1CCOC1) is given as 428 nm.
Regarding `COc1cc(OC)c2c(c1)c1c(c3ccc(C(C)(C)C)cc32)=[N+]2C(=Nc3c(-c4cc(OC)c(OC)c(OC)c4)c4c5cc(OC)cc(OC)c5c5cc(C(C)(C)C)ccc5c4n3[B-]2(F)F)C=1c1cc(OC)c(OC)c(OC)c1`, where the note is “in Cc1ccccc1”, the absorption maximum was 791 nm.
Consider `O=c1c2ccccc2[nH]c2ccccc12`, for which the absorption maximum is, setting by setting: (in CS(C)=O) 398 nm; (in O) 385 nm.
Consider `CC[N+](CC)=c1ccc2cc3c(oc-2c1)-c1ccc(N(C)C)cc1CC3`, for which the absorption maximum is given as 612 nm (in CCO), 619 nm (in ClCCl) and 604 nm (in O).
As to `CC(C)(C)NC(=O)c1ccc(Br)c2ccc3c4ccccc4c4ccccc4c3c12`, the absorption maximum (in ClCCl) is on record as 343 nm.
`CC(=O)c1c(N[C@@H](Cc2ccc(O)cc2)C(=O)O)c2ccc(N(C)C)cc2oc1=O`: the absorption maximum (in ClCCl) came out at 368 nm.
For `c1ccc(-c2nc(-c3ccccc3)nc(-c3ccc(-n4c5ccccc5c5c6c(ccc54)C4(c5ccccc5-c5ccccc54)c4ccccc4-6)cc3)n2)cc1`, the absorption maximum (in Cc1ccccc1) stood at 374 nm.
